Measurements from patent EP1001930B1, “N-HYDROXYFORMAMIDE DERIVATIVES AS INHIBITORS OF MATRIX METALLOPROTEINASES” (Abbott Laboratories, priority 1997, dated 1999).

Molecular target: T1, Recombinant truncated stromelysin (human sequence) (Homo sapiens, UniProt P08254)
T1 construct: made in house; host or cells: E. coli
Assay: Determination of stromelysin inhibition (cleavage of thiopeptide ester substrate, DTNB colour read at 405 nm)
Type: biochemical
Conditions: substrate Ac-Pro-Leu-Gly-[2-mercapto-4-methylpentanoyl]-Leu-Gly-OEt; 30 minute assay at ambient temperature; 50 mM MES/NaOH pH 6.5 with 10 mM CaCl2 and 0.2% Pluronic F-68
Procedure: The efficacy of the compounds of this invention as matrix metalloproteinase inhibitors was determined by measuring the inhibition of stromelysin. The inhibition of stromelysin by the compounds of this invention was determined as follows: Recombinant truncated stromelysin (human sequence) produced in E. coli was prepared by expression and purification of the protein as described by Ye et al. (Biochemistry, 1992, 31, 11231-11235, which is incorporated herein by reference). The enzyme was assayed by its cleavage of the thiopeptide ester substrate Ac-Pro-Leu-Gly-[2-mercapto-4-methylpentanoyl]-Leu-Gly-OEt as described by Weingarten and Feder (Anal. Biochem., 1985, 147, 437-440 (1985), which is incorporated herein by reference) as a substrate of vertebrate collagenase. The reported conditions were modified to allow assays to be carried out in a microtiter plate. Upon hydrolysis of the thioester bond, the released thiol group reacted rapidly with 5,5'-dithio-bis(2-nitrobenzoic acid) (DTNB) to produce a yellow color which was measured by a microtiter plate reader set at 405 nm. The rates of cleavage of the substrate by stromelysin in the presence or absence of inhibitors were measured in a 30 minute assay at ambient temperature. Solutions of the compounds in DMSO were prepared, and these were diluted at various concentrations into the assay buffer (50 mM MES/NaOH pH 6.5 with 10 mM CaCl2 and 0.2% Pluronic F-68), which was also used for dilution of the enzyme and substrate. The potency of the compounds [IC50] was calculated from the inhibition/inhibitor concentration data.

T1 sequence (P08254 100-272 limits assumed): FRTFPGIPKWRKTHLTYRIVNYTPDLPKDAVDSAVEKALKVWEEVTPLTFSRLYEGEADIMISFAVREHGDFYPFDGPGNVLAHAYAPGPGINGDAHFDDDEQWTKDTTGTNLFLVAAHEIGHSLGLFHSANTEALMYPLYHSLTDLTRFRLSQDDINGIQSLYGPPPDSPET

`N#Cc1ccc(-c2ccc(OCC(COc3ccccc3)N(O)C=O)cc2)cc1` (racemic) [Example 1, (±)-N-[1-[[(4'-cyano-[1,1'-biphenyl]-4-yl)oxy]methyl]-2-phenoxyethyl]-N-hydroxyformamide] showed an IC50 of 130 nM.
In the case of `N#Cc1ccc(-c2ccc(OCC(CSc3ccccc3)N(O)C=O)cc2)cc1` (racemic) [Example 2, (±)-N-[1-[[(4'-cyano-[1,1'-biphenyl]-4-yl)oxy]methyl]-2-(phenylthio)ethyl]-N-hydroxyformamide], the IC50 is reported as 36 nM.
`CCCCC(COc1ccc(-c2ccc(C#N)cc2)cc1)N(O)C=O` (racemic) [Example 9, (±)-N-[1-[[(4'-cyano-[1,1'-biphenyl]-4-yl)oxy]methyl]pentyl]-N-hydroxyformamide] gave an IC50 of 100 nM.
Work on `CC(COc1ccc(-c2ccc(C#N)cc2)cc1)N(O)C=O` (racemic) [Example 13, (±)-N-[1-[[(4'-cyano-[1,1'-biphenyl]-4-yl)oxy]methyl]ethyl]-N-hydroxyformamide] yielded an IC50 of 310 nM.
With `CC(=O)N(O)CCOc1ccc(-c2ccc(C#N)cc2)cc1` [Example 14, N-[2-[(4'-cyano-[1,1'-biphenyl]-4-yl)oxy]ethyl]-N-hydroxyacetamide] the IC50 was 4000 nM.
Work on `N#Cc1ccc(-c2ccc(OCC(Cc3ccc(F)cc3)N(O)C=O)cc2)cc1` (racemic) [Example 12, (±)-N-[1-[[(4'-cyano-[1,1'-biphenyl]-4-yl)oxy]methyl]-2-(4-fluorophenyl)ethyl]-N-hydroxyformamide] yielded an IC50 of 180 nM.
In the case of `Cc1ccc(CC(COc2ccc(-c3ccc(C#N)cc3)cc2)N(O)C=O)cc1` (racemic) [Example 10, (±)-N-[1-[[(4'-cyano-[1,1'-biphenyl]-4-yl)oxy]methyl]-2-(4-methylphenyl)ethyl]-N-hydroxyformamide], the IC50 is reported as 1500 nM.
Compound `N#Cc1ccc(-c2ccc(OCC(CN3C(=O)c4ccccc4C3=O)N(O)C=O)cc2)cc1` (racemic) [Example 3, (±)-N-[1-[[(4'-cyano-[1,1'-biphenyl]-4-yl)oxy]methyl]-2-(2,3-dihydro-1,3-dioxo-1H-isoindol-2-yl)ethyl]-N-hydroxyformamide] has an IC50 of 21 nM.
`N#Cc1ccc(-c2ccc(OCC(c3ccc(F)cc3)N(O)C=O)cc2)cc1` (racemic) [Example 11, (±)-N-[2-[(4'-cyano-[1,1'-biphenyl]-4-yl)oxy]-1-(4-fluorophenyl)ethyl)-N-hydroxyformamide] was tested, and the IC50 was 300 nM.
With `CCCCC(COc1ccc(-c2cccc(CC#N)c2)cc1)N(O)C=O` (racemic) [Example 6, (±)-N-[1-[[[3'-(cyanomethyl)-[1,1'-biphenyl]-4-yl]oxy]methyl]pentyl]-N-hydroxyformamide] the IC50 was 30 nM.
With `CCC(C)C(COc1ccc(-c2ccc(C#N)cc2)cc1)N(O)C=O` (racemic) [Example 8, (± )-N-[1-[[(4'-cyano-[1,1'-biphenyl]-4-yl)oxy]methyl]-2-methylbutyl]-N-hydroxyformamide] the IC50 was 170 nM.
Work on `N#Cc1ccc(-c2ccc(OCCN(O)C=O)cc2)cc1` [Example 15] yielded an IC50 of 620 nM.
